Data reported in patent publication US12195557B2, “Optimised compounds” (AXELIA ONCOLOGY PTY LTD, priority 2017, dated 2025).

Tests used:
[1] = Size exclusion chromatography and LC-MS analysis of micelle aggregates; type: physicochemical; conditions: INNA-006 at 0.3 mg/ml in PBS; INNA-011 at 0.4 mg/ml in saline
Procedure: INNA-011 and INNA-006 form micelle-type aggregates in both aqueous and organic solutions. The size distribution and polydispersity of particles of INNA-006 and INNA-011 were determined by dynamic light scattering (DLS) and size exclusion chromatography (University of Melbourne). […] This corresponds to the assembly in a micelle formation of about 266 individual INNA-006 molecules. Using size exclusion chromatography and LC-MS analysis, it was determined that INNA-011 at 0.4 mg/ml is present in saline solution as a single uniform species with a Stoke's radius of ˜7.3 nm and a molecular weight of ˜566,000. This corresponds to the assembly in a micelle formation of about 267 individual INNA-011 molecules.

[2] = human plasma, 37° C., 4 h time course
[3] = in vitro; conditions: rat, hepatocytes
[4] = in vitro; conditions: human, hepatocytes

**Q.** For CCC(=O)OCC(CSCC(N)C(=O)NC(CO)C(=O)NCCOCC(=O)NCC(N)=O)OC(=O)CC (stereo not drawn) [INNA-006, Pam2Cys-Ser-PEG], which Stokes radius [1] is on record?
**A.** ~6.3 nm

**Q.** And the “individual molecules assembled in a micelle formation” value [1]?
**A.** about 266 molecules

**Q.** What about the “molecular weight of micelle species” value [1] of the same compound?
**A.** ~377,000

**Q.** What about the plasma half-life [2] of the same compound?
**A.** could not be calculated due to insufficient degradation

**Q.** And the half-life at 0.5 μM [3]?
**A.** > 6.25 h

**Q.** What about the hepatocyte CLint at 0.5 μM [3] of the same compound?
**A.** < 2 µL/min/1e6 cells

**Q.** What about the half-life at 0.5 μM [4] of the same compound?
**A.** > 6.25 h

**Q.** And the hepatocyte CLint at 0.5 μM [4]?
**A.** < 2 µL/min/1e6 cells
